Data reported in patent publication US11248030B2, “Dual IL-2R and IL-7R binding compounds” (MEDIKINE, INC., priority 2019, dated 2022).

Legend:
[1] = target: T1, IL-7Rα subunit (Homo sapiens, UniProt P16871); assay: competitive binding assay, specific binding site on the IL-7Rα subunit; settings: specific binding site distinct from that of IL-7
T1 construct: human IL-7Rα (CD127 protein, Fc Tag) (21-236); Fc; purchased ACRObiosystems, Inc. ILB-H5258

[2] = target: T2, IL-2Rβ subunit (Homo sapiens, UniProt P14784); assay: competitive binding assay, specific binding site on the IL-2Rβ subunit
T2 construct: human IL-2Rβ (CD122 protein, Fc Tag) (27-239); Fc; purchased ACRObiosystems, Inc. ILB-H5253
T2 sequence (P14784 27-239): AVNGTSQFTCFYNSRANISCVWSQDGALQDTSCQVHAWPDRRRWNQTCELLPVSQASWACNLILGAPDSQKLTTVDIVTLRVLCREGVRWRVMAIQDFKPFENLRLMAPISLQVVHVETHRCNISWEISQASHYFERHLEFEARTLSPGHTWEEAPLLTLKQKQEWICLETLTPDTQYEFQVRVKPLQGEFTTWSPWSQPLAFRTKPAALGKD

T1 sequence (P16871 21-236): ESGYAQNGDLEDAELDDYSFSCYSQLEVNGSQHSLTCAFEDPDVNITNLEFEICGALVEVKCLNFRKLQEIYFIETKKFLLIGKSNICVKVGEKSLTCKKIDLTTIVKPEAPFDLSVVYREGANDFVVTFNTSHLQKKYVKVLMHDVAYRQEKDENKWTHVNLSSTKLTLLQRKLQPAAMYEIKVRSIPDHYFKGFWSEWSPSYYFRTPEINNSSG

In the case of `CC(C)C[C@@H]1NC(=O)[C@H](CO)NC(=O)CNC(=O)[C@@H]2CCCN2C(=O)[C@H](CC(=O)O)NC(=O)[C@H](CC(C)C)NC(=O)[C@H]([C@@H](C)O)NC(=O)[C@@H](NC(=O)[C@H](Cc2c[nH]c3ccccc23)NC(=O)[C@@H]2CCCN2C(=O)[C@@H](N)C(C)C)CSSC[C@@H](C(=O)N[C@@H](C)C(=O)N[C@@H](Cc2c[nH]c3ccccc23)C(=O)N[C@@H](Cc2ccccc2)C(=O)O)NC(=O)[C@H](CCC(N)=O)NC1=O` [SEQ ID NO: 2313, V P W C T L D P G S L Q C A W F], the IC50 [1] is reported as under 10 µM.
In the case of `CC[C@H](C)[C@@H]1NC(=O)[C@H](CCCNC(=N)N)NC(=O)[C@@H](NC(=O)[C@H](CC(=O)O)NC(=O)[C@@H](N)Cc2ccc(O)cc2)CSSC[C@@H](C(=O)N[C@@H](CC(=O)O)C(=O)N[C@@H](CC(C)C)C(=O)O)NC(=O)[C@H](CC(C)C)NC(=O)[C@H](CCC(=O)O)NC(=O)CNC(=O)[C@H](C(C)C)NC(=O)[C@H](CCC(N)=O)NC(=O)[C@H](C)NC1=O` [SEQ ID NO: 154, Y D C R I A Q V G E L C D L], the IC50 [2] is reported as under 10 µM.
With `CSCC[C@H](NC(=O)[C@H](CC(C)C)NC(=O)[C@H](CC(C)C)NC(=O)[C@H](CC(=O)O)NC(=O)CNC(=O)[C@@H](NC(=O)[C@H](CC(=O)O)NC(=O)CNC(=O)[C@H](Cc1c[nH]c2ccccc12)NC(=O)[C@@H](N)CCCNC(=N)N)C(C)C)C(=O)N1CCC[C@H]1C(=O)N[C@@H](CC(C)C)C(=O)O` [SEQ ID NO: 209, R W G D V G D L L M P L] the IC50 [2] was under 10 µM.
Work on `CC[C@H](C)[C@@H]1NC(=O)[C@H](CCC(=O)O)NC(=O)[C@H](C)NC(=O)[C@@H](NC(=O)[C@H](Cc2ccc(O)cc2)NC(=O)[C@@H](N)C(C)C)CSSC[C@@H](C(=O)N[C@@H](CCCNC(=N)N)C(=O)N[C@@H](CCC(N)=O)C(=O)O)NC(=O)[C@H](C(C)C)NC(=O)[C@H](CCCNC(=N)N)NC(=O)[C@H](Cc2ccc(O)cc2)NC(=O)[C@H](CCC(=O)O)NC(=O)CNC1=O` [SEQ ID NO: 2043, V Y C A E I G E Y R V C R Q] yielded an IC50 [1] of under 10 µM.
In the case of `CC[C@H](C)[C@H](NC(=O)[C@H](CCC(N)=O)NC(=O)[C@@H]1CSSC[C@H](NC(=O)[C@H](CCSC)NC(=O)[C@@H](N)CC(N)=O)C(=O)N[C@@H](CC(C)C)C(=O)N[C@@H](C(C)C)C(=O)NCC(=O)N[C@@H](CC(=O)O)C(=O)N[C@@H](Cc2ccc(O)cc2)C(=O)N[C@@H](Cc2c[nH]c3ccccc23)C(=O)N2CCC[C@H]2C(=O)N[C@@H](CO)C(=O)N1)C(=O)O` [SEQ ID NO: 180, N M C L V G D Y W P S C Q I], the IC50 [2] is reported as under 10 µM.
For `CC[C@H](C)[C@@H]1NC(=O)[C@@H](NC(=O)[C@@H](N)CCC(N)=O)CSSC[C@@H](C(=O)N[C@H](C(=O)O)C(C)C)NC(=O)[C@H](CO)NC(=O)[C@H](CC(C)C)NC(=O)[C@H](CC(C)C)NC(=O)[C@H]([C@@H](C)O)NC(=O)[C@H](CCC(=O)O)NC(=O)[C@H]([C@@H](C)CC)NC(=O)[C@H](CC(=O)O)NC(=O)[C@H](Cc2c[nH]c3ccccc23)NC(=O)[C@H](Cc2c[nH]cn2)NC1=O` [SEQ ID NO: 2159, Q C I H W D I E T L L S C V], the IC50 [1] was under 10 µM.
